Laboratory results taken from US10266497B2 (ABIDE THERAPEUTICS, INC., priority 2017, dated 2019).

Experiments:
[1] = biological target: T1, FAAH (Homo sapiens, UniProt O00519); experiment: In vitro competitive activity-based protein profiling, FAAH, human; conditions: for inhibition at 1 µM: read-out: FAAH % inh. 1 μM (human)
T1 sequence (O00519 1-579): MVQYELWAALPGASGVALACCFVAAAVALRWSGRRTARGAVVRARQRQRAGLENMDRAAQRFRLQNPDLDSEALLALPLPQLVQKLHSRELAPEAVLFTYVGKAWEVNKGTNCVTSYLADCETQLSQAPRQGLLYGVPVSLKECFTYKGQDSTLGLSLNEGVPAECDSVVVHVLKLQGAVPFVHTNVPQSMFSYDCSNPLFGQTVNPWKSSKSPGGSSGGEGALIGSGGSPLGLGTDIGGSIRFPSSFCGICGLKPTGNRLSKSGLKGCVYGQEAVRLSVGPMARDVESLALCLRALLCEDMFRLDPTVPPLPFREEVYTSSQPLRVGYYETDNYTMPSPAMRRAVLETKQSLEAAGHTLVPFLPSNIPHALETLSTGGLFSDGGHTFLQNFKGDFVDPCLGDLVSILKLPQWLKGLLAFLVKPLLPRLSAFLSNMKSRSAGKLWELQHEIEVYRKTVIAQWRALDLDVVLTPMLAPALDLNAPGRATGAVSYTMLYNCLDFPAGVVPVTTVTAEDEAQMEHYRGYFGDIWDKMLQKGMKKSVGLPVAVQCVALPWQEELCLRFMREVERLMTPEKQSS

[2] = biological target: T2, MAGL (Homo sapiens, UniProt Q99685); experiment: In vitro competitive activity-based protein profiling, MAGL, human; conditions: for inhibition at 1 µM: read-out: MAGL % inh. 1 μM (human)
T2 sequence (Q99685 1-303): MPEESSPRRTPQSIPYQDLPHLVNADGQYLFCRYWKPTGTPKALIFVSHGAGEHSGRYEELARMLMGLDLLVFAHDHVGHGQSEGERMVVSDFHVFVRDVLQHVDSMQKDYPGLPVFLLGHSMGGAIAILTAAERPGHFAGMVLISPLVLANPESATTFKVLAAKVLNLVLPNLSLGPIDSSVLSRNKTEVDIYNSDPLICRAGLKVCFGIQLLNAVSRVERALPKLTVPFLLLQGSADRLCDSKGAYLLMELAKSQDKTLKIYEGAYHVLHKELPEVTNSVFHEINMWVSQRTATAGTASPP

[3] = biological target: T3, FAAH (Mus musculus, UniProt O08914); experiment: Mouse brain proteomes from inhibitor treated mice (oral gavage, sacrificed 4 h after administration), FAAH; assay type: in vivo; set-up: mouse brain membrane fraction for mouse assays; from tissue; host or cells: mouse brain (membrane fraction in vitro; brain proteomes of treated C57Bl/6J mice in vivo); conditions: 5 mg/kg oral gavage, brain proteome 4 h after administration, read-out: FAAH % inh. 5 mg/kg (mouse)
T3 sequence (O08914 1-579): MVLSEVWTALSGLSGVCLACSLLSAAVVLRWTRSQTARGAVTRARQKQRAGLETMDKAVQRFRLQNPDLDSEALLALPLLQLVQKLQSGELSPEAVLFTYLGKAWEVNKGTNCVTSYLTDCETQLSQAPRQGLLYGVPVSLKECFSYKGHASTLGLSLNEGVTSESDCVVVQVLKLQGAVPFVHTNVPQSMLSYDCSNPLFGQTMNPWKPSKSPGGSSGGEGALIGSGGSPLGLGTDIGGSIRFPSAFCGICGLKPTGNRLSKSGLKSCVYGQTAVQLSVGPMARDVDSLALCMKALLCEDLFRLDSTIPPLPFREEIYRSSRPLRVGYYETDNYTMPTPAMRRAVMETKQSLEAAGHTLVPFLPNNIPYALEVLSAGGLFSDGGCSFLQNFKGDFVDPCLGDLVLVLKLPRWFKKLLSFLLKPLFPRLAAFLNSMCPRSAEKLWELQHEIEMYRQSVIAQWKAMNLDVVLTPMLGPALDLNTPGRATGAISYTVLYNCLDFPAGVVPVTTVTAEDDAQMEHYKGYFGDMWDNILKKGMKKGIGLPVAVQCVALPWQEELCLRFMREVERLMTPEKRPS

[4] = biological target: T4, MAGL (Mus musculus, UniProt O35678); experiment: In vitro competitive activity-based protein profiling, MAGL, mouse; conditions: read-out: MAGL % inh. 1 μM (mouse)
T4 sequence (O35678 1-303): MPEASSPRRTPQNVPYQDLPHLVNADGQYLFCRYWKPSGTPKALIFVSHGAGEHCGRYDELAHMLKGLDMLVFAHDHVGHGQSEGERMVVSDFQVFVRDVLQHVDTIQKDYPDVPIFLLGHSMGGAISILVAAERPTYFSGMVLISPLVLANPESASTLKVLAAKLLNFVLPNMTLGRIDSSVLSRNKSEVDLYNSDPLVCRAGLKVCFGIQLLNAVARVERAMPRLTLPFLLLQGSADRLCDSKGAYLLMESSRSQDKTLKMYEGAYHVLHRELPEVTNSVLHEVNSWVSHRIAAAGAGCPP

[5] = biological target: T4, MAGL; experiment: Mouse brain proteomes from inhibitor treated mice (oral gavage, sacrificed 4 h after administration); assay type: in vivo; set-up: mouse brain membrane fraction for mouse assays; from tissue; host or cells: mouse brain (membrane fraction in vitro; brain proteomes of treated C57Bl/6J mice in vivo); conditions: 5 mg/kg oral gavage, brain proteome 4 h after administration, read-out: MAGL % inh. 5 mg/kg (mouse)
[6] = biological target: T3, FAAH; experiment: In vitro competitive activity-based protein profiling, FAAH, mouse; conditions: read-out: FAAH % inh. 1 μM (mouse)

Row | Compound | IC50 [1] [nM] | inhibition at 1 µM [1] [%] | inhibition at 1 µM [2] [%] | inhibition at 5 mg/kg [3] [%] | inhibition at 1 µM [4] [%] | inhibition at 5 mg/kg [5] [%] | inhibition at 1 µM [6] [%] | IC50 [2] [nM]
1 | O=C(O)c1ccn(C(=O)N2CCC3(CCN(Cc4cccc(Oc5ccc(Cl)cc5)c4)C3)CC2)n1 [Example 210, 1-(2-(3-(4-chlorophenoxy)benzyl)-2,8-diazaspiro[4.5]decane-8-carbonyl)-1H-pyrazole-3-carboxylic acid] | 1000 to 10000 | > 75 | > 75 | 0 to 25 | > 75 | 0 to 25 | > 75 | 100 to 1000
2 | O=C(O)c1ccn(C(=O)N2CCN(Cc3ccc(C(F)(F)F)cc3N3CCC(O)CC3)CC2)n1 [Example 120, 1-(4-(2-(4-hydroxypiperidin-1-yl)-4-(trifluoromethyl)benzyl)piperazine-1-carbonyl)-1H-pyrazole-3-carboxylic acid] |  | 0 to 25 | > 75 | 0 to 25 | > 75 | 0 to 25 | 0 to 25 | 
3 | O=C(O)c1ccn(C(=O)N2C[C@H]3C[C@H](OCc4cccc(C(F)(F)F)c4)C[C@H]3C2)n1 [Example 157, 1-(trans-5-((3-(trifluoromethyl)benzyl)oxy)octa-hydrocyclopenta[c]pyrrole-2-carbonyl)-1H-pyrazole-3-carboxylic acid] | 100 to 1000 | > 75 | > 75 | 0 to 25 | > 75 | 0 to 25 | > 75 | 
4 | Cc1c(CN2CCN(C(=O)n3ccc(C(=O)O)n3)CC2)[nH]c2ccc(Cl)cc12 [Example 188, 1-(4-((5-chloro-3-methyl-1H-indol-2-yl)methyl)piperazine-1-carbonyl)-1H-pyrazole-3-carboxylic acid] |  | 0 to 25 | > 75 | 0 to 25 | > 75 | 0 to 25 | 0 to 25 | 
5 | O=C(O)c1ccn(C(=O)N2CCN(Cc3ccc(C(F)(F)F)cc3N3C4CCC3COC4)CC2)n1 [Example 118, 1-(4-(2-(3-oxa-8-azabicyclo[3.2.1]octan-8-yl)-4-(trifluoromethyl)benzyl)piperazine-1-carbonyl)-1H-pyrazole-3-carboxylic acid] |  | 0 to 25 | > 75 | 0 to 25 | > 75 | 0 to 25 | 0 to 25 | 
6 | O=C(O)c1ccn(C(=O)N2CCN(Cc3cccc(Cl)c3N3C4CCC3COC4)CC2)n1 [Example 212, 1-(4-(2-(3-oxa-8-azabicyclo[3.2.1]octan-8-yl)-3-chlorobenzyl)piper-azine-1-carbonyl)-1H-pyrazole-3-carboxylic acid] |  | 0 to 25 | > 75 | 0 to 25 | > 75 | 0 to 25 | 0 to 25 | 
7 | O=C(O)c1ccn(C(=O)N2CCN(Cc3ccc(Cl)cc3N3CCCC3)CC2)n1 [Example 107, 1-(4-(4-chloro-2-(pyrrolidin-1-yl)benzyl)piperazine-1-carbonyl)-1H-pyrazole-3-carboxylic acid] |  | 0 to 25 | > 75 | 0 to 25 | > 75 | 0 to 25 | 0 to 25 | 

The remaining lines, values ahead:

Row | IC50 [1] [nM] | inhibition at 1 µM [1] [%] | inhibition at 1 µM [2] [%] | inhibition at 5 mg/kg [3] [%] | inhibition at 1 µM [4] [%] | inhibition at 5 mg/kg [5] [%] | inhibition at 1 µM [6] [%] | IC50 [2] [nM] | Compound
8 | 100 to 1000 | > 75 | > 75 | 0 to 25 | > 75 | 0 to 25 | > 75 |  | Cc1c(CO[C@H]2C[C@@H]3CN(C(=O)n4ccc(C(=O)O)n4)C[C@@H]3C2)cccc1C(F)(F)F [Example 159, 1-(trans-5-((2-methyl-3-(trifluoromethyl)benzyl)oxy)octa-hydrocyclopenta[c]pyrrole-2-carbonyl)-1H-pyrazole-3-carboxylic acid]
9 |  | 0 to 25 | > 75 | 0 to 25 | > 75 | 0 to 25 | 0 to 25 |  | O=C(O)c1ccn(C(=O)N2CCN(Cc3cccc(C(F)(F)F)c3N3CCCC3)CC2)n1 [Example 90, 1-(4-(2-(pyrrolidin-1-yl)-3-(trifluoromethyl)benzyl)piperazine-1-carbonyl)-1H-pyrazole-3-carboxylic acid]
10 |  | 0 to 25 | > 75 | 0 to 25 | > 75 | 0 to 25 | 0 to 25 |  | CN(Cc1ccc(C(F)(F)F)cc1N1CCOCC1)C1(C)CCN(C(=O)n2ccc(C(=O)O)n2)CC1 [Example 4, 1-(4-Methyl-4-(methyl(2-morpholino-4-(trifluoromethyl)benzyl)amino)piperidine-1-carbonyl)-1H-pyrazole-3-carboxylic Acid]
11 |  | > 75 | > 75 | 0 to 25 | > 75 | 0 to 25 | > 75 |  | O=C(O)c1nn(C(=O)N2CCC3(CCCN3Cc3cc4ccc(C(F)(F)F)cc4s3)CC2)cc1Cl [Example 139, 4-chloro-1-(1-((6-(trifluoromethyl)benzo[b]thiophen-2-yl)methyl)-1,8-diazaspiro[4.5]decane-8-carbonyl)-1H-pyrazole-3-carboxylic acid]
12 | 100 to 1000 | > 75 | > 75 | 25 to 50 | > 75 | 0 to 25 | > 75 |  | O=C(O)c1nn(C(=O)N2CCC3(CCN(Cc4cc(Cl)ccc4C(F)(F)F)C3)CC2)cc1C(F)(F)F [Example 148, 1-(2-(5-chloro-2-(trifluoromethyl)benzyl)-2,8-diazaspiro[4.5]decane-8-carbonyl)-4-(trifluoromethyl)-1H-pyrazole-3-carboxylic acid]
13 |  | 25 to 50 | > 75 | 0 to 25 | > 75 | 0 to 25 | 0 to 25 |  | O=C(O)c1ccn(C(=O)N2CCN(Cc3cc4cc(Cl)ccc4s3)CC2)n1 [Example 187, 1-(4-((5-chlorobenzo[b]thio-phen-2-yl)methyl)piperazine-1-carbonyl)-1H-pyrazole-3-carboxylic acid]
